Data: patent publication US10335400B2, “Treatment of tauopathies with mGluR5 antagonists” (priority 2014, dated 2019)

What was measured:
PP2A [1] = test: i.c.v. infusion of BMAA in neonatal rats: PP2Ac Tyr307 phosphorylation and PP2A activity; assay type: in vivo, rat; settings: i.c.v. BMAA 1.3 μmol
Experimental: (§1) Wistar rats were bred and maintained under standard environmental conditions (12-h light/dark cycles, 22° C.) and were allowed free access to food and water. The animal experiments were carried out in strict compliance with protocols approved by the Animal Welfare Committee of New York State Institute for Basic Research in Developmental Disabilities. On postnatal d 2 (PND2), pups were individually cryo-anesthetized on ice, and 2 μL of 1.3 μmol BMAA in PBS was injected into lateral ventricle using a 10-μL Hamilton syringe (Hamilton Syringe Co.). Control animals were injected with PBS in an identical manner. After infusion of BMAA, rats were killed within 1, 24, 48, 72, or 96 h, and the brains were used for Western blots and PP2A activity assays.
PP2A activity was assayed with homogenate of rat brain slices using the phosphatase ELISA described previously (5). Briefly, 96-well plates were precoated with a 17-aa phosphopeptide corresponding to tau amino acids 194-207 in which […] was replaced with phosphoserine and to which KKK were added at the C terminus (coating buffer, 35 mM NaHCO3). After overnight blocking with a protein-free blocking solution (Pierce), the enzymatic reaction was performed by adding 2 μg of cell lysate protein in 60 μL of reaction buffer [50 mM TrisHCl (pH 7.0), 2 mM MnCl2, 0.1 mg/mL BSA, 20 mM (β-mercaptoethanol] at 30° C. for 30 min (in the presence or absence of 15 nM of okadaic acid) in a moist chamber. The reaction was stopped by adding 150 μL of Pierce blocking solution containing 50 mM NaF, followed by an overnight incubation with monoclonal antibody Tau-1, which recognizes tau unphosphorylated at Ser^198, Ser^199, and Ser^202. HRP-conjugated secondary antibody treatment was for 60 min at room temperature. Finally 75 μL of 3,3′,5,5′-Tetramethylbenzidine substrate reagent (Sigma) was added, and the colorimetric development was measured using a microtiter plate reader at a wavelength of 650 nm.
(§2) Protein was fractionated by 10% SDS/PAGE, transferred to PVDF membrane, and then blocked with 5% skim milk for 1 h at room temperature. […] The protein bands were detected with the enhanced chemiluminescence reagents (Thermo Scientific). Band intensity was measured by Multi-Gauge V3 software (Fuji Photo Film).

tau = test: i.c.v. infusion of BMAA in neonatal rats: hyperphosphorylation of tau; assay type: in vivo, rat; settings: i.c.v. BMAA 1.3 μmol
Experimental: as §1
Protein was fractionated by 10% SDS/PAGE, transferred to PVDF membrane, and then blocked with 5% skim milk for 1 h at room temperature. The membrane was probed with anti-IPP2A (5G6, 1:1, 500) (7), anti-I2P2A (10E7, 1:1, 600) (7), anti-tau ˜92e; 1:5,000) (8), anti-tau (R134d; 1:5 000) (9), anti-tau pSer^262/^356 (12E8; 1:500) (10, anti-tau pSer^199, anti-tau pThr^205, anti-tau pThr^212, and pSer^396 (1:1,000) (Biosource), anti-GAPDH (1:2,000) (Santa Cruz Biotechnology), anti-PP2Ac (1:10 000) (BD Transduction Lab), anti pY^307-PP2A and anti-DML^309-PP2A (1:1,000) (Millipore), anti-GSK-3(α/β), anti-pS^9-GSK-3 β, anti-ERK1/2, anti-pT^202/Y^204-ERK1/2, anti-MEK1/2, anti-p9^17/221-MEK1/2, anti-CAMKII, anti-pT^286-CAMKII, anti-p70 S6 kinase, anti-pT^389-p70 S6 kinase, anti-SAPK/JNK, and anti-pT^183/Y^185-SAPK/JNK (1:1,000) (Cell Signaling Technology). The membrane then was incubated with HRP-conjugated secondary antibody (Jackson ImmunoResearch). The protein bands were detected with the enhanced chemiluminescence reagents (Thermo Scientific). Band intensity was measured by Multi-Gauge V3 software (Fuji Photo Film).

mixed cortical cultures = settings: injury induced by amyloid-β, 1-methyl-4-phenylpyridinium or methylmercury; cited from earlier work
[2] = molecular target: bovine purified PP2A holoenzyme (Bos taurus, UniProt P67774); test: In vitro PP2A activity assay with purified PP2A holoenzyme; assay type: biochemical; settings: purified PP2A holoenzyme in the presence or absence of BMAA
Chain of bovine purified PP2A holoenzyme (Q32PI5 whole entry): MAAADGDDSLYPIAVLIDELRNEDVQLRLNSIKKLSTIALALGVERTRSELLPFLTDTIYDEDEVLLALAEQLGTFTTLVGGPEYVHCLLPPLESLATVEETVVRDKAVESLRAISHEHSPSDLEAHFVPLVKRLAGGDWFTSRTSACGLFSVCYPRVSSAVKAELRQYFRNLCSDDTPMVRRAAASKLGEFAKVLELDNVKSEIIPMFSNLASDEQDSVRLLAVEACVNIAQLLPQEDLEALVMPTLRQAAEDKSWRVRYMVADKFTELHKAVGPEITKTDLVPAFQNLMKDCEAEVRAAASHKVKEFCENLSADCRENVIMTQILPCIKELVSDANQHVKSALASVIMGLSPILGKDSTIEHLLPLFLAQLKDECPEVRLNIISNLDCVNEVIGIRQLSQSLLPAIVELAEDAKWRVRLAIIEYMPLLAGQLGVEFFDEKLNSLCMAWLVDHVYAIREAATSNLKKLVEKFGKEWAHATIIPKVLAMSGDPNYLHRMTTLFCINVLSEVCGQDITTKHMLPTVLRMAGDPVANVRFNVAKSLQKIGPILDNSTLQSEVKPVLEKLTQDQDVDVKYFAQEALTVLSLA
Chain of bovine purified PP2A holoenzyme (P67774 whole entry): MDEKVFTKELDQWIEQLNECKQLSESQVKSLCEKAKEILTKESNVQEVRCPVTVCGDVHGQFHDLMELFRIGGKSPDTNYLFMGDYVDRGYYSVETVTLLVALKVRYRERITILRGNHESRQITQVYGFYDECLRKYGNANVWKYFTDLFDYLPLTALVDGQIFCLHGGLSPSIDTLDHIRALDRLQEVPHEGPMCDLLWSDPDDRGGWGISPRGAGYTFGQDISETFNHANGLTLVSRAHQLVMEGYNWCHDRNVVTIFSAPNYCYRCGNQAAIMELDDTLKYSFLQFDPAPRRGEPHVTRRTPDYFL
Description: No effect of BMAA on PP2A activity was found.

PP2A [3] = test: PP2A activity (phosphatase ELISA) in rat brain slices; assay type: cell-based; settings: brain slices incubated with BMAA 1 mM for 2 h in artificial cerebrospinal fluid
Experimental: Male Wistar rats (Charles River Laboratories), 2-3 months old, were anesthetized by i.p. injection with 50 mg/kg Nembutal. The animals were decapitated when deeply anesthetized. The brains were removed immediately and cooled in ice-cold (4° C.) oxygenated artificial cerebrospinal fluid (aCSF) consisting of 126 mM NaCl, 3.5 mM KCl, 1.2 mM NaH2PO4, 1.3 mM MgCl2, 2 mM CaCl2, 11 mM D(+) glucose, and 25 mM NaHCO3 (pH 7.4) for 7-8 min. Each brain then was divided sagittally, and 400-μm-thick coronal slices were made with a Camden Vibraslicer (WP, Inc.). The slices were transferred into a chamber containing the oxygenated aCSF and were incubated at 33° C. for 2 h in the presence or absence of 1 mM, β-N ? methylamino-L-alanine (BMAA) dissolved in 10 mM NaHCO3 (Sigma). The oxygenation of the aCSF was carried out by bubbling the solution with a mixture of 95% O2 and 5% CO2 during the entire procedure. At the end of incubation, the brain slices were homogenized with homogenizing buffer [50 mM Tris·HCl (pH 7.4), 8.5% (wt/vol) sucrose, 2 mM EDTA, 2 mM EGTA, 10 mM (3-mercaptoethanol, 5 mM benzamidine, 0.5 mM 4-(2-Aminoethyl) benzenesulfonyl fluoride hydrochloride (AEBSF), 4 μg/mL pepstatin A, and 10 μg/mL each of aprotinin and leupepin] at a ratio of 9.0 mL buffer/1.0 g tissue slices. The homogenates were divided into two parts. One part was centrifuged at 16,000×g for 10 min, and the resulting supernatant was used to assay protein phosphatase 2A (PP2A) activity. Into the other half, an equal volume of phosphatase-inhibitor mixture (20 mM 3-glycerophosphate, 2 mM Na3VO4, and 100 mM NaF) was added immediately, and the samples were used for Western blots.

PP2Ac = test: PP2A regulatory factors (pTyr307-PP2Ac, demethylated Leu309, I1PP2A, I2PP2A) by Western blots in rat brain slices; assay type: cell-based; settings: BMAA-treated rat brain slices (1 mM, 2 h)
Experimental: Male Wistar rats (Charles River Laboratories), 2-3 months old, were anesthetized by i.p. injection with 50 mg/kg Nembutal. The animals were decapitated when deeply anesthetized. The brains were removed immediately and cooled in ice-cold (4° C.) oxygenated artificial cerebrospinal fluid (aCSF) consisting of 126 mM NaCl, 3.5 mM KCl, 1.2 mM NaH2PO4, 1.3 mM MgCl2, 2 mM CaCl2, 11 mM D(+) glucose, and 25 mM NaHCO3 (pH 7.4) for 7-8 min. Each brain then was divided sagittally, and 400-μm-thick coronal slices were made with a Camden Vibraslicer (WP, Inc.). The slices were transferred into a chamber containing the oxygenated aCSF and were incubated at 33° C. for 2 h in the presence or absence of 1 mM, β-N ? methylamino-L-alanine (BMAA) dissolved in 10 mM NaHCO3 (Sigma). The oxygenation of the aCSF was carried out by bubbling the solution with a mixture of 95% O2 and 5% CO2 during the entire procedure. […]
as §2

CNC[C@H](N)C(=O)O [BMAA, β-N-methylamino-L-alanine]
PP2A activity in rat brain (PP2A [1]): decreased | time at which the decrease in PP2A activity was most significant (PP2A [1]): 48 h | time by which pTyr307-PP2Ac decreased to a normal level (PP2A [1]): 72-96 h | level of phosphorylation of PP2Ac at Tyr307 in rat brains (PP2A [1]; for 24-48 h): increased markedly | time of peak hyperphosphorylation of tau at Ser262/356 (tau): 24 to 48 h | time of peak hyperphosphorylation of tau at Thr212 (tau): 24 to 48 h | time of peak phosphorylation of tau at Ser199 (tau): 72 to 96 h | time of peak phosphorylation of tau at Ser396 (tau): 72 to 96 h | time of peak phosphorylation of tau at Thr205 (tau): 72 to 96 h | BMAA concentration potentiating neuronal injury (mixed cortical cultures): 10 µM | direct effect on PP2A activity [2]: No effect | PP2A activity (PP2A [3]): significant inhibition | increase in phosphorylation of PP2Ac at Tyr307 (PP2Ac): 3.7 fold
